Test: cn = amount concentration of the nth substance listed, in mol/dm3
Conditions: 101 kPa, Liquid, Advanced Conductivity Orion 162A

CCCC[N+](CCCC)(CCCC)CCCC.O=C([O-])C(F)(F)C(F)(F)C(F)(F)C(F)(F)C(F)(F)C(F)(F)C(F)(F)F [tetrabutylammonium perfluorooctanoate] + O
Conditions | electrical conductivity [S/m]
283.1 K, c1 = 0.000329 | 0.00105
283.1 K, c1 = 0.000649 | 0.0019
283.1 K, c1 = 0.000962 | 0.00271
283.1 K, c1 = 0.001266 | 0.00351
283.1 K, c1 = 0.001562 | 0.00431
283.1 K, c1 = 0.001852 | 0.00505
283.1 K, c1 = 0.002134 | 0.00579
283.1 K, c1 = 0.00241 | 0.00643
283.1 K, c1 = 0.002678 | 0.00707
283.1 K, c1 = 0.002941 | 0.00749
283.1 K, c1 = 0.003198 | 0.00762
283.1 K, c1 = 0.003448 | 0.0077
283.1 K, c1 = 0.003814 | 0.00782
283.1 K, c1 = 0.004167 | 0.00793
283.1 K, c1 = 0.004508 | 0.00803
283.1 K, c1 = 0.004839 | 0.00812
283.1 K, c1 = 0.005159 | 0.00821
283.1 K, c1 = 0.005469 | 0.00831
288.15 K, c1 = 0.000247 | 0.00099
288.15 K, c1 = 0.000488 | 0.00175
288.15 K, c1 = 0.000723 | 0.00249
288.15 K, c1 = 0.000952 | 0.0032
288.15 K, c1 = 0.001176 | 0.00389
288.15 K, c1 = 0.001395 | 0.00457
288.15 K, c1 = 0.001609 | 0.00521
288.15 K, c1 = 0.001818 | 0.00582
288.15 K, c1 = 0.00202 | 0.00641
288.15 K, c1 = 0.002222 | 0.00704
288.15 K, c1 = 0.002418 | 0.00756
288.15 K, c1 = 0.002609 | 0.00796
288.15 K, c1 = 0.002796 | 0.00811
288.15 K, c1 = 0.002979 | 0.00819
288.15 K, c1 = 0.003246 | 0.0083
288.15 K, c1 = 0.003505 | 0.00839
288.15 K, c1 = 0.003838 | 0.00852
288.15 K, c1 = 0.004158 | 0.00863
288.15 K, c1 = 0.004466 | 0.00873
288.15 K, c1 = 0.004906 | 0.00888
288.15 K, c1 = 0.005321 | 0.00902
293.15 K, c1 = 0.000263 | 0.00116
293.15 K, c1 = 0.000519 | 0.0021
293.15 K, c1 = 0.000769 | 0.00299
293.15 K, c1 = 0.001013 | 0.00386
293.15 K, c1 = 0.00125 | 0.00471
293.15 K, c1 = 0.001481 | 0.00552
293.15 K, c1 = 0.001707 | 0.00626
293.15 K, c1 = 0.001928 | 0.00699
293.15 K, c1 = 0.002143 | 0.0077
293.15 K, c1 = 0.002353 | 0.00829
293.15 K, c1 = 0.002558 | 0.0085
293.15 K, c1 = 0.002759 | 0.00862
293.15 K, c1 = 0.002954 | 0.00871
293.15 K, c1 = 0.00324 | 0.00884
293.15 K, c1 = 0.003516 | 0.00895
293.15 K, c1 = 0.003784 | 0.00907
293.15 K, c1 = 0.004042 | 0.0092
293.15 K, c1 = 0.004375 | 0.00931
293.15 K, c1 = 0.004694 | 0.00944
293.15 K, c1 = 0.005 | 0.00956
298.15 K, c1 = 0.000248 | 0.00124
298.15 K, c1 = 0.00049 | 0.00229
298.15 K, c1 = 0.000728 | 0.0033
298.15 K, c1 = 0.000962 | 0.0043
298.15 K, c1 = 0.00119 | 0.00528
298.15 K, c1 = 0.001415 | 0.00618
298.15 K, c1 = 0.001636 | 0.00703
298.15 K, c1 = 0.001852 | 0.00789
298.15 K, c1 = 0.002064 | 0.00869
298.15 K, c1 = 0.002273 | 0.00907
298.15 K, c1 = 0.002477 | 0.00916
298.15 K, c1 = 0.002728 | 0.00927
298.15 K, c1 = 0.003094 | 0.00944
298.15 K, c1 = 0.003448 | 0.00959
298.15 K, c1 = 0.003814 | 0.00976
298.15 K, c1 = 0.004167 | 0.00992
298.15 K, c1 = 0.004592 | 0.01011
298.15 K, c1 = 0.005 | 0.01028
303.15 K, c1 = 0.000263 | 0.00148
303.15 K, c1 = 0.000519 | 0.00267
303.15 K, c1 = 0.000769 | 0.00383
303.15 K, c1 = 0.001013 | 0.00497
303.15 K, c1 = 0.00125 | 0.0061
303.15 K, c1 = 0.001481 | 0.00717
303.15 K, c1 = 0.001707 | 0.00814
303.15 K, c1 = 0.001928 | 0.00909
303.15 K, c1 = 0.002143 | 0.00964
303.15 K, c1 = 0.002353 | 0.00979
303.15 K, c1 = 0.002558 | 0.00989
303.15 K, c1 = 0.002759 | 0.00998
303.15 K, c1 = 0.002954 | 0.01005
303.15 K, c1 = 0.00324 | 0.01016
303.15 K, c1 = 0.003516 | 0.01026
303.15 K, c1 = 0.003784 | 0.01035
303.15 K, c1 = 0.004042 | 0.01044
303.15 K, c1 = 0.004375 | 0.01055
303.15 K, c1 = 0.004694 | 0.01065
308.15 K, c1 = 0.000309 | 0.00189
308.15 K, c1 = 0.00061 | 0.0034
308.15 K, c1 = 0.000904 | 0.00484
308.15 K, c1 = 0.00119 | 0.00633
308.15 K, c1 = 0.00147 | 0.00774
308.15 K, c1 = 0.001744 | 0.00909
308.15 K, c1 = 0.002011 | 0.01001
308.15 K, c1 = 0.002273 | 0.01017
308.15 K, c1 = 0.002423 | 0.01022
308.15 K, c1 = 0.002578 | 0.01026
308.15 K, c1 = 0.002728 | 0.0103
308.15 K, c1 = 0.002876 | 0.01034
